Values joined by “and” are separate entries in the source; they are usually repeats but may differ in a detail not shown here. Equal entries are not always repeated. “Also recorded” adds a separate entry of the source. Where two headings read alike, the source gives them in different places. Bridges are numbered along the chain shown (N, C = ends).
Experiments:
mAb 2C7 = test: Inhibition ELISA: inhibition of mAb 2C7 binding to immobilized gonococcal LOS
Text: FIGS. 1A-1B show the structure and characterization of one of the peptide mimics described herein (also referred to as TMCP2). […] The 2C7 mimitope is indicated in shown as the sequence “H2C-CO-GPIPVLDENGLFAPGPC” (SEQ ID NO: 1) Cyclization is maintained through a thioether bond. The reverse peptide mimic core is represented the schematic of the peptide mimic as “Ac-β-Ala-Glu[Glu-OH]2.” The reverse peptide mimic core links to each cyclic peptide through a lysine (K) residue.
In order to compare antigenicity of peptide mimic Core Peptide 2 (monomeric cyclic CP2) and composite TMCP2 compounds with LOS that expresses the 2C7 epitope, inhibition ELISA was performed using mAb 2C7 reacted with the individual compounds to assess inhibition of binding (residual binding) of mAb to LOS by each compound. Microtiter wells were coated with LOS (80 μg/ml in PBS) purified from strain FA1090. Wells were washed and blocked with PBS-0.05% Tween 20. mAb 2C7 (0.04 μg/ml) either alone or containing monomeric cyclic peptide CP2 (1.07 to 1070 μM) or composite TMCP2 (concentrations ranging from […]) was dispended into LOS coated wells. Residual binding of 2C7 mAb was measured with anti-mouse IgG conjugated to alkaline phosphatase. Bound IgG was quantitated using a mouse IgG standard curve and percent inhibition determined compared to reaction mixtures that […].
Attempts to measure mAb 2C7 (7) binding directly to immobilized peptide mimic Core Peptide 2 (abbreviated CP2 in FIG. 1A) and composite TMCP2 by ELISA were not successful. The possibility of poor capture of the peptides by the microtiter wells was considered and therefore used an ELISA to measure inhibition of binding (residual binding) of mAb 2C7 to immobilized gonococcal LOS that had been reacted with increasing concentrations of the peptides (FIG. 1B).

[1] = system: LOS purified from N. gonorrhoeae strain 15253; type: in vivo; conditions: for mean anti-LOS IgG level: n=13
15253 ΔlgtG LOS = test: ELISA of immune sera against 2C7-negative LOS (specificity); type: in vivo, N. gonorrhoeae; conditions: sera of mice immunized with TMCP2 + GLA-SE
Description: Microtiter wells were coated with LOS purified from 15253 or 15253 ΔlgtG (80 μg/ml) in PBS as described previously. Serial dilutions of immune sera were dispensed into wells and bound anti-LOS Ab was disclosed with anti-mouse IgG conjugated to alkaline phosphatase. A standard curve for mouse IgG was generated by coating wells with anti-mouse IgG (Sigma) and pure mouse IgG (Sigma) also as described previously.

N. gonorrhoeae FA1090 = test: Serum bactericidal assay, immune mouse sera plus human complement; type: cell-based; conditions: for immune sera showing >50% killing: IgM-depleted sera at 1:30 (3.3%); for immune sera showing <50% survival (>50% killing): intact sera at 3.3% (1:30)
Description: […] Sera from mice diluted 1:1 in PBS was mixed with anti-mouse IgM agarose (Sigma; binding capacity ≥0.4 mg/ml) (1 volume of packed agarose to 1 volume of serum diluted 1:1) in a 2.0 ml microspin filter column (Costar) with a pore size of 0.22 μM) for 15 min at 22° C. Filter-sterilized IgM depleted sera were collected by centrifugation of the mixture at 1000 g for 2 min and heat-inactivated (56° C. for 30 min) to eliminate intrinsic complement activity in mouse serum prior to use in serum bactericidal assays where human complement was substituted.
(§1) Serum bactericidal assays were performed. Bacteria that had been harvested from an overnight culture on chocolate agar plates were repassaged onto fresh chocolate agar and allowed to grow for 6 h at 37° C. in an atmosphere containing 5% CO2. Bacteria were then suspended in HBSS containing 1 mM MgCl2 and 0.15 mM CaCl2) (HBSS++) for use in serum bactericidal assays. Briefly, about 2000 colony forming units (CFUs) of N. gonorrhoeae FA090 were incubated with serial dilutions of immune mouse sera (heat-inactivated and IgM-depleted) in the presence or absence of 20% normal human serum (NHS) as a source of human complement. Serum bactericidal assays with strain MS11 were performed with IgG and IgM depleted NHS (Human complement; Pel-Freez) because this strain is susceptible to killing by NHS. Final volumes of bactericidal reaction mixtures were 150 μl. Aliquots of 25-μl reaction mixtures were plated onto chocolate agar in duplicate at the beginning of the assay (to) and again after incubation at 37° C. for 30 min (t30). Survival was calculated as the number of viable colonies at t30 relative to t0.

N. gonorrhoeae MS11 = test: as above; type: cell-based; conditions: for killing of MS11, all 13 immune sera: 50 μg/dose schedule
Description: Because earlier it was observed that sera from naïve and mice given adjuvant alone manifest bactericidal activity mediated by IgM, mouse IgM was depleted from all sera collected as part of immunization studies. Sera from mice diluted 1:1 in PBS was mixed with anti-mouse IgM agarose (Sigma; binding capacity ≥0.4 mg/ml) (1 volume of packed agarose to 1 volume of serum diluted 1:1) in a 2.0 ml microspin filter column (Costar) with a pore size of 0.22 μM) for 15 min at 22° C. Filter-sterilized IgM depleted sera were collected by centrifugation of the mixture at 1000 g for 2 min and heat-inactivated (56° C. for 30 min) to eliminate intrinsic complement activity in mouse serum prior to use in serum bactericidal assays where human complement was substituted.
as §1

[2] = system: N. gonorrhoeae strain 15253; test: Serum bactericidal activity of antisera raised against tetra-MAP candidates; type: cell-based; conditions: post-dose 5 IgM-depleted antiserum 1:3, 17% NHS; Sigma MPL adjuvant; compared with TMCP3, TMCP4
Description: See Tables 1A-1K for a description of peptides. Post-dose 5 mouse anti-serum (IgM depleted) was tested against N. gonorrhoeae strain 15253 at a final dilution of 1:3 in the presence of 17% normal human serum (NHS) as the complement source. Y-axis, % killing ([CFU at t0−CFU at t30/CFU at t0]×100).
as §1

[3] = TMCP2 50 μg + GLA-SE, 3 doses 2 weeks apart, 11 mice

Substance: [(CH2-CO-GPIPVLDENGLFAPGPC)-K-OH]4 ({CH2CO}-GPIPVLDENGLFAPGPCK-OH; thioether N-17; also: tetrameric MAP) [TMCP2]
- fold lower molar concentration of TMCP2 (compared to CP2) required to achieve 50% inhibition (mAb 2C7): ~4 fold
- IC50 (mAb 2C7; mAb 2C7 0.04 μg/ml, LOS-coated wells, read-out: concentration giving 50% inhibition of mAb 2C7 binding to immobilized 15253 LOS): 25 µM
- anti-LOS IgG in vaginal swabs ([1]; 5 mice, TMCP2 50 μg/dose + GLA-SE at 0, 2, 4 weeks, 2 weeks after third dose): detected
- anti-LOS IgG levels in intact immune sera, all mice ([1]; BALB/c, n=13 per group, TMCP2 50, 100 or 200 μg/dose + GLA-SE, 3 weeks apart): exceeded 2 μg/ml
- anti-LOS IgG response in 3 of 5 mice ([1]; BALB/c, TMCP2 50 μg dose + GLA-SE, 3 doses): exceeded 10 μg/ml
- anti-LOS IgG response, every mouse ([1]; BALB/c, TMCP2 50, 100 or 200 μg + GLA-SE, 3 doses 3 weeks apart, two weeks after final boosting): exceeded 2 μg/ml
- mean anti-LOS level, post-dose 3 immune sera [1, 3]: 2.31 µg/mL
- range of anti-LOS level, post-dose 3 immune sera [1, 3]: 1.33 to 3.59 µg/mL
- mean anti-LOS IgG level ([1]; TMCP2 50 μg/dose + GLA-SE, 3 doses 3 weeks apart): 4.98 µg/mL
- mean anti-LOS IgG level ([1]; TMCP2 100 μg/dose + GLA-SE, 3 doses 3 weeks apart): 4.06 µg/mL
- mean anti-LOS IgG level ([1]; TMCP2 200 μg/dose + GLA-SE, 3 doses 3 weeks apart): 3.8 µg/mL
- IgM response to the 2C7 epitope ([1]; pooled post-dose 3 sera, IgM binding to 15253 LOS vs 15253 ΔlgtG LOS): no apparent IgM response
- anti-LOS titers in immunization experiments ([1]; tetrapeptides 50 μg/dose plus Sigma MPL adjuvant, BALB/c, FIG. 10): higher anti-LOS titers than TMCP4
- IgG reactivity of immune sera with 15253 ΔlgtG LOS (15253 ΔlgtG LOS): non-reactivity; also recorded: no IgG binding
- killing of FA1090, one serum sample (N. gonorrhoeae FA1090; IgM-depleted post-dose 3 serum, 1:6 (16.7%), 50 μg/dose group): 47%
- immune sera showing >50% killing (N. gonorrhoeae FA1090; 100 μg/dose group): Three of five
- immune sera showing >50% killing (N. gonorrhoeae FA1090; 200 μg/dose group): three of four
- Survival in intact immune serum (N. gonorrhoeae FA1090; Table 4, TMCP2 200 μg/dose + GLA-SE, immune serum 16.7% (1/6), 16.7% NHS): 0.00% and 6.19%
- killing of FA1090 by intact immune sera, all sera (N. gonorrhoeae FA1090; final dilution 1:6 (16.7% immune serum), TMCP2 50, 100, 200 μg/dose + GLA-SE): > 50%
- immune sera showing <50% survival (>50% killing) (N. gonorrhoeae FA1090; 50 μg/dose group): Four of 5
- immune sera showing <50% survival (>50% killing) (N. gonorrhoeae FA1090; 100 μg/dose group): 3 of 5
- immune sera showing <50% survival (>50% killing) (N. gonorrhoeae FA1090; 200 μg/dose group): 3 of 4
- killing of MS11, all 13 immune sera (N. gonorrhoeae MS11; immune serum 3.3%): > 60%
- killing of MS11, all 13 immune sera (N. gonorrhoeae MS11; immune serum 6.7%): > 98%
- complement-dependent killing of MS11, all sera in each group (N. gonorrhoeae MS11; 13 sera per group after 3rd dose, 16.7% (1/6 dilution)): > 50%
- Survival in intact immune serum (N. gonorrhoeae MS11; Table 6, TMCP2 50 μg/dose + GLA-SE, immune serum 6.7% (1/15), 6.7% IgG/IgM-depleted NHS (Pel-Freez)): 0.00% and 1.52% and 0.47% and 0.93%
- complement-dependent bactericidal activity of antisera [2]: maximal
